Data: paper PMC3684613 (PLoS ONE, 2013)
Read-outs that look alike come from different tables or passages of the source.

Assays:
P. falciparum 3D7 [1] = experiment: DAPI stain fluorescent high content imaging assay, P. falciparum 3D7 (confirmatory screen, Avery); conditions: Plasmodium falciparum; for EC50: 3D7, read-out: EC50_nM; for inhibition of growth at 5 µM: 3D7, read-out: percent_inh @ 5 uM; for inhibition of growth at 2 µM: 3D7, read-out: percent_inh @ 2 uM
P. falciparum 3D7 [2] = tested on: P. falciparum 3D7; parameters: method as in ChEMBL-NTD; conditions: ref ChEMBL-NTD, cited from earlier work
[3] = original screening data, source (GSK, GNF, StJude), several values separated by ';' in order of sources
[4] = values follow the order of the source (GNF; GSK; StJude)

EC50 (P. falciparum 3D7 [1])	SMILES	inhibition of growth at 5 µM (P. falciparum 3D7 [1])	also measured
	O=C(Nc1ccc(Br)cc1)Nc1cccc(Cl)c1 [MMV001318]	94%	EC50 (P. falciparum 3D7 [2]; [3]): 15000 nM
4000 nM	CN1CCN(c2c3c(c(C#N)c4nc5ccccc5n24)CCC3)CC1 [MMV008127]		inhibition of growth at 2 µM (P. falciparum 3D7 [1]): 42%; EC50 (P. falciparum 3D7 [2]; [3]): 1180 nM
939 nM	O=C(NCc1ccco1)C1CCN(S(=O)(=O)c2ccc(Br)cc2)CC1 [MMV007430]	93%	EC50 (P. falciparum 3D7 [2]; [3]): 362 nM
	O=C(Nc1ccc(Cl)cc1C(=O)Nc1ccncc1)c1ccc(Cl)cc1Cl [MMV666057]	94%	EC50 (P. falciparum 3D7 [2]; source GSK): 611 nM
769 nM	Cc1c(C)n(CC(O)CNC2CCCCC2C)c2ccccc12 (stereo not drawn) [MMV665806]	96%	EC50 (P. falciparum 3D7 [2]; [3]): 527 nM
1150 nM	Cc1cc(N(C)C)nc(Nc2ccc(NC(=O)Nc3ccccc3)cc2)n1 [MMV020243]		EC50 (P. falciparum 3D7 [2]; [4]): 134 nM
448 nM	COc1ccc(-c2nc(NC(=O)CS(=O)(=O)c3ccc(F)cc3)sc2C)cc1 [MMV665915]	97%	EC50 (P. falciparum 3D7 [2]; source GNF (GNF-Pf id)): 212 nM; EC50 (P. falciparum 3D7 [2]; source GSK (TCMDC id)): 243 nM
830 nM	COc1ccc(C(=O)NC(c2ccccc2Cl)c2cc(Cl)c3cccnc3c2O)cc1 (stereo not drawn) [MMV666022]	96%	EC50 (P. falciparum 3D7 [2]; source GNF (GNF-Pf ids)): 2370 nM
1010 nM	O=C(NC1CCN(Cc2ccccc2)CC1)c1cc(-c2cccnc2)nc2ccc(Cl)cc12 [MMV020490]	91%	EC50 (P. falciparum 3D7 [2]; [3]): 759 nM
1190 nM	COCCN(C(=O)Cc1cccs1)C(C(=O)NCc1ccc(OC)cc1)c1ccc(C(C)C)cc1 (stereo not drawn) [MMV666105]	92%	EC50 (P. falciparum 3D7 [2]; source GSK): 845 nM
1140 nM	COc1nc(Nc2ccc(C(C)C)cc2)nc(OC)n1 [MMV007808]	88%	EC50 (P. falciparum 3D7 [2]; [3]): 677 nM
625 nM	CCN(Cc1ccccc1)C1CCN(Cc2cc(Br)ccc2O)CC1 [MMV019127]	97%	EC50 (P. falciparum 3D7 [2]; [3]): 823 nM
212 nM	Cc1cc(Nc2ccc(Cl)cc2)n2nc(C(F)(F)F)nc2n1 [MMV011256]		EC50 (P. falciparum 3D7 [2]; source GSK (TCMDC id)): 117 nM
140 nM	COc1ccccc1CNC(=O)CCn1c(=O)[nH]c2ccsc2c1=O [MMV019066]	67%	EC50 (P. falciparum 3D7 [2]; source GSK (TCMDC id)): 1040 nM
263 nM	Cc1cc(C=C2SC(=Nc3ccccc3)N(C3CCCC3)C2=O)c(C)n1-c1ccc(Cl)cc1 [MMV666688]	97%	EC50 (P. falciparum 3D7 [2]; source GSK (TCMDC id)): 876 nM
641 nM	CCN(CC)S(=O)(=O)c1ccc(-c2csc(Nc3ccc(C)c(C)c3)n2)cc1 [MMV009108]	97%	EC50 (P. falciparum 3D7 [2]; [3]): 2100 nM
1190 nM	CCOC(=O)c1cnc2ccc(Cl)cc2c1NCCCN(C)C [MMV006882]	98%	EC50 (P. falciparum 3D7 [2]; source GNF (GNF-Pf ids)): 826 nM
1360 nM	O=C(Nc1nc(-c2ccccn2)cs1)c1ccccc1Br [MMV665909]	97%	EC50 (P. falciparum 3D7 [2]; source StJude): 4530 nM
697 nM	Cc1cc(C)c2nc(N3CCC(C(=O)NCCCN4CCC(N5CCCCC5)CC4)CC3)sc2c1 [MMV019780]	98%	EC50 (P. falciparum 3D7 [2]; source GSK): 838 nM
1170 nM	Cc1ccc2nc(C)cc(Nc3cccc(C(F)(F)F)c3)c2c1 [MMV000326]	98%	EC50 (P. falciparum 3D7 [2]; source StJude (SJ ids)): 879 nM
	COc1ccc2nc(N)nc(C)c2c1 [MMV665897]	63%	EC50 (P. falciparum 3D7 [2]; source GSK (TCMDC ids)): 927 nM
685 nM	FC(F)(F)c1cccc(CNC2CCN(CCc3ccccc3)CC2)c1 [MMV665979]	96%	EC50 (P. falciparum 3D7 [2]; source GNF): 174 nM
	CCOc1cccc2sc(N(Cc3cccnc3)C(=O)C3CCCCC3)nc12 [MMV001230]	94%	EC50 (P. falciparum 3D7 [2]; source StJude): 3040 nM
934 nM	COc1ccc(C2NCCc3c2[nH]c2ccccc32)cc1CN1CCN(c2ccc(F)cc2)CC1 (stereo not drawn) [MMV019690]	97%	EC50 (P. falciparum 3D7 [2]; source GSK (TCMDC ids)): 776 nM
205 nM	CCOC(=O)c1cn(CC)c2cc(N(C)CCc3ccc(OC)c(OC)c3)c(F)cc2c1=O [MMV665977]	99%	EC50 (P. falciparum 3D7 [2]; source GNF (GNF-Pf id)): 103 nM; EC50 (P. falciparum 3D7 [2]; source GSK (TCMDC id)): 425 nM
4000 nM	CCOc1ccc(Nc2ccnc3cc(Cl)ccc23)cc1 [MMV007285]		inhibition of growth at 2 µM (P. falciparum 3D7 [1]): 94%; EC50 (P. falciparum 3D7 [2]; [4]): 956 nM
232 nM	CCOC(=O)c1cnc2c(C)cc(C)cc2c1Nc1ccc(OC)c(OC)c1 [MMV008294]	96%	EC50 (P. falciparum 3D7 [2]; source GNF (GNF-Pf id)): 1780 nM
237 nM	CCCCCC(=O)N1c2ccccc2N=C2CC(c3ccc(OC)c(OC)c3)CC(O)=C2C1c1ccc(C(F)(F)F)cc1 (stereo not drawn) [MMV085583]	100%	EC50 (P. falciparum 3D7 [2]; source GNF (GNF-Pf id)): 107 nM

SMILES	EC50 (P. falciparum 3D7 [1])	inhibition of growth at 5 µM (P. falciparum 3D7 [1])	also measured
Cc1ccc(N2C3c4ccccc4N(S(=O)(=O)c4ccc(C)cc4)C2c2ccccc2N3S(=O)(=O)c2ccc(C)cc2)cc1 [MMV007160]	24.8 nM	97%	EC50 (P. falciparum 3D7 [2]; source GNF (GNF-Pf id)): 720 nM
CCCc1cc(O)c2c3c(c(=O)oc2c1)CN(C)CC3 [MMV665841]	146 nM	97%	EC50 (P. falciparum 3D7 [2]; source GNF (GNF-Pf id)): 554 nM; EC50 (P. falciparum 3D7 [2]; source GSK (TCMDC id)): 873 nM
CCC1(C)CC(CCNCc2ccccc2O)(c2ccc(C)cc2)CCO1 (stereo not drawn) [MMV019406]	142 nM	97%	EC50 (P. falciparum 3D7 [2]; source GSK (TCMDC id)): 38.8 nM
c1ccc2c(NCCCCCCNc3c4c(nc5ccccc35)CCCC4)c3c(nc2c1)CCCC3 [MMV019555]	376 nM	100%	EC50 (P. falciparum 3D7 [2]; source GSK (TCMDC ids)): 196 nM
